Measurements: ChEMBL document CHEMBL1142388, “Carbonic anhydrase activators: activation of the human tumor-associated isozymes IX and XII with amino acids and amines” (Bioorg Med Chem, 2008)

Tests used:
[1] = molecular target: Carbonic anhydrase 12 (Homo sapiens) (UniProt O43570); test: Activation of human recombinant CA12 catalytic domain by stopped-flow CO2 hydration method
[2] = molecular target: Carbonic anhydrase 9 (Homo sapiens) (UniProt Q16790); test: Activation of human recombinant CA9 catalytic domain by stopped-flow CO2 hydration method

Chain of Carbonic anhydrase 12 (Homo sapiens) (O43570 whole entry, the tested form may be a part): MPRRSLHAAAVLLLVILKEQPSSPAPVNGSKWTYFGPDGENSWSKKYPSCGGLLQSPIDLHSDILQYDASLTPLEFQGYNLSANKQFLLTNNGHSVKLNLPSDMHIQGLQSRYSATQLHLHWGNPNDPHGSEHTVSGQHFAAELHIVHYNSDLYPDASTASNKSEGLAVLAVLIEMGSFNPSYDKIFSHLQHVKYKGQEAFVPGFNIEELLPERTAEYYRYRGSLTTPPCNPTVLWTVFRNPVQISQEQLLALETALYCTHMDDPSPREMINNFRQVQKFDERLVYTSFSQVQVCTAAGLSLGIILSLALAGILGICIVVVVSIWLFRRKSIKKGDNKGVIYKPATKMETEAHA

N[C@@H](Cc1c[nH]cn1)C(=O)O
KA [1]: 37.5 µM | KA [2]: 9.71 µM

N[C@H](Cc1c[nH]c2ccccc12)C(=O)O
KA [1]: 28.1 µM | KA [2]: 43.6 µM

NCCc1ccc(O)c(O)c1
KA [1]: 0.67 µM | KA [2]: 0.92 µM

N[C@@H](Cc1ccc(O)c(O)c1)C(=O)O
KA [1]: 1.67 µM | KA [2]: 51.3 µM

N[C@@H](Cc1ccc(O)cc1)C(=O)O
KA [1]: 25.8 µM | KA [2]: 25.3 µM

NCCc1c[nH]cn1
KA [1]: 27.9 µM | KA [2]: 35.1 µM

NCCN1CCOCC1
KA [1]: 0.24 µM | KA [2]: 0.43 µM

NCCN1CCNCC1
KA [1]: 48.3 µM | KA [2]: 0.009 µM

N[C@@H](Cc1c[nH]c2ccccc12)C(=O)O
KA [1]: 26 µM | KA [2]: 37.5 µM

N[C@H](Cc1ccc(O)c(O)c1)C(=O)O
KA [1]: 0.89 µM | KA [2]: 54.7 µM

NCCc1ccccn1
KA [1]: 0.69 µM | KA [2]: 0.013 µM

NCc1ccccn1
KA [1]: 41.5 µM | KA [2]: 1.07 µM

CNCC(O)c1ccc(O)c(O)c1 (single isomer, unassigned)
KA [1]: 0.41 µM | KA [2]: 0.87 µM

N[C@H](Cc1c[nH]cn1)C(=O)O
KA [1]: 24.7 µM | KA [2]: 12.5 µM

Nc1ccc(C[C@H](N)C(=O)O)cc1
KA [1]: 1.09 µM | KA [2]: 48.7 µM

NCCc1c[nH]c2ccc(O)cc12
KA [1]: 0.3 µM | KA [2]: 33.1 µM
